Read-outs that look alike come from different tables or passages of the source.
Experiments:
tRNA methylases = conditions: cited from earlier work
human retrovirus = conditions: cited from earlier work
[1] = system: vesicular stomatitis virus; conditions: primary rabbit kidney cells; cited from earlier work
SAH hydrolase = conditions: cited from earlier work; for Ki: De Clercq & Cools (1985)
[2] = system: tumor-derived methionine adenosyltransferases; conditions: cited from earlier work
SAM synthetase = conditions: cited from earlier work
L1210 cells = conditions: absence of polyamine depletion; cited from earlier work
adenosine deaminase = conditions: cited from earlier work
[3] = system: S. aureus 27660 (erythromycin resistant); assay type: cell-based; conditions: in combination with erythromycin
[4] = system: RNA methyltransferase from Streptomyces antibioticus; conditions: 100 μM; cited from earlier work
[5] = mice, cited from earlier work
[6] = system: RNA synthesis in Hela cells; conditions: cited from earlier work
SAHH hydrolase = conditions: cited from earlier work
GSH = conditions: cited from earlier work; for depletion of GSH: 0.2 mg/kg; for reduction of GSH levels: 0.2 mmol/kg (S) and 0.4 mmol/kg (S,R), liver, kidney and pancreas
[7] = system: vaccinia virion mRNA(guanine-7)methyltransferase; conditions: 100 μM; cited from earlier work
methyl transfer from SAM = conditions: cited from earlier work

In the case of 6-mercaptoadenine, the “inhibition of tRNA methylases” value (tRNA methylases) is listed as “gave inhibition that would be acceptable”.

For 6-methoxyadenine, the “inhibition of tRNA methylases” value (tRNA methylases) is listed as “possible exceptions”.

For `CC(C)COC(=O)C(O)Cn1cnc2c(N)ncnc21` (racemic) [(RS)-AHPA isobutyl ester], the effective inhibitory concentration (human retrovirus) is given as ~1.2 µg/mL, the activity index (human retrovirus; in vitro cytotoxicity vs activity) is given as 80 and the “minimum inhibitor concentration (50% reduction of cytopathogenicity)” value [1] is given as 2 µg/mL.

For `Nc1ncnc2c1ncn2CC(O)C(=O)O` (racemic) [(RS)-AHPA, (R,S)-3-adenine-9-yl-2-hydroxypropanocic acid], the Ki (SAH hydrolase) is listed as 0.073 µM.

In the case of `CC[Se]CCC(N)C(=O)O` (racemic) [seleno-DL-ethionine], the inhibition [2] is given as “effective inhibitors”.

For `Nc1nc(N)c2ncn([C@@H]3C[C@H](O)[C@@H](O)[C@H]3O)c2n1` (relative stereo) [2,6-diamino-analogue], the SAH hydrolase inhibition (SAH hydrolase) is given as “inhibitors of SAHH”.

For `NC1(C(=O)O)CC2CC1C2` (single isomer, unassigned; (+)) [(+)-2-aminobicyclo[2.1.1]hexane-2-carboxylic acid], the SAM synthetase inhibition (SAM synthetase) is given as “most effective”, the inhibition [2] is given as “most effective” and the IC50 (L1210 cells) is given as 5000 µM.

For `CS/C=C\[C@H](N)C(=O)O` (stereo in doubt) [L-cis-AMTB, L-2-amino-4-methylthio-cis-but-3-enoic acid], the “inhibitory potency relative to L-cis-AMB” value (SAM synthetase) is given as “slightly less inhibitory than L-cis-AMB”.

For `OCC1NC=Nc2c1ncn2[C@@H]1O[C@H](CO)[C@@H](O)[C@H]1O` (stereo partly shown) [1,6-dihydro-6-hydroxy-methylpurine nucleoside], the ADA inhibition (adenosine deaminase) is listed as “inhibitors of ADA”.

For `NC1(C(=O)O)CCC1` [1-aminocyclobutanecarboxylic acid], the inhibition [2] is listed as “effective inhibitors”.

In the case of `NC1(C(=O)O)CCCCC1` [1-aminocyclohexanecarboxylic acid], the inhibition [2] is listed as “effective inhibitors”.

For `Nc1ncnc2c1ncn2[C@H]1C[C@H](O)[C@@H](CO)O1` [2'-deoxyadenosine], the “enhanced killing with erythromycin” value [3] is listed as “enhanced the killing” and the SAH hydrolase inhibition (SAH hydrolase) is listed as “suicide inactivators of SAH hydrolase”.

In the case of `Nc1nc(F)nc2c1ncn2[C@@H]1O[C@H](CSCCC(N)C(=O)O)[C@@H](O)[C@H]1O` (stereo partly shown) [2-FSAH, 2-fluoro-S-adenosylhomocysteine], the SAH hydrolase inhibition (SAH hydrolase) is given as “effective inhibitor of SAHH”.

In the case of `NC1(C(=O)O)CC2CCC2C1` (stereo not shown) [3-aminobicyclo[3.2.0]heptane-3-carboxylic acid], the SAM synthetase inhibition (SAM synthetase) is given as “effective inhibitors”.

In the case of `CSCSC[C@H]1O[C@@H](n2cnc3c(N)ncnc32)[C@H](O)[C@@H]1O` [5'-S-methylthiomethyladenosine], the inhibition [4] is listed as 65%.

For `CN(C)c1ncnc2[nH]cnc12` [6-dimethyladenine], the “inhibition of tRNA methylases” value (tRNA methylases) is given as “possible exceptions”.

In the case of `CNc1ncnc2[nH]cnc12` [6-methyladenine], the “inhibition of tRNA methylases” value (tRNA methylases) is given as “gave inhibition that would be acceptable”.

In the case of `NC1(C(=O)O)CC2CC1C1CCCC21` [(1R,2R,4S) isomer of 2-amino-5,6-exo-trimethylenenorbornane-2-carboxylic acid, 2-amino-5,6-exo-trimethylenenorbornane-2-carboxylic acid], the SAM synthetase inhibition (SAM synthetase) is listed as “effective inhibitors”.

For `N[C@]1(C(=O)O)C[C@H]2CC[C@@H]1C2` [(1R,2R,4S) isomer of 2-aminonorbornane-2-carboxylic acid, 2-aminonorbornane-2-carboxylic acid], the SAM synthetase inhibition (SAM synthetase) is listed as “effective inhibitors”.

In the case of `Nc1ncnc2c1ncn2C[C@H](O)CO` [(S)-DHPA, 9(S)-(2,3-dihydroxypropyl)adenine], the effective inhibitory concentration (human retrovirus) is given as “about 60 μg/ml”, the “minimum inhibitor concentration (50% reduction of cytopathogenicity)” value [1] is given as 20 µg/mL and the Ki (SAH hydrolase) is given as 1.4 µM.

In the case of `C/C(Cl)=C/C[C@H](N)C(=O)O` [(Z)-L-2-amino-5-chloro-trans-4-hexanoic acid], the inhibition [2] is listed as “effective inhibitors”.

For `Nc1ncnc2c1ncn2[C@@H]1O[C@H](CO)[C@@H](O)[C@@H]1O` [Ara-A, 9-β-arabinofuranosyladenine], the “enhanced killing with erythromycin” value [3] is given as “enhanced the killing”, the SAH hydrolase inhibition (SAH hydrolase) is given as “suicide inactivators of SAH hydrolase” and the “activity relative to 2'-deoxyadenosine” value (SAH hydrolase; suicide inactivation of SAH hydrolase) is given as “twice as active as 2'-deoxyadenosine”. The LD50 ([5]; i.p.) was 4,677 mg/kg and the LD50 ([5]; orally) was 7,950 mg/kg.

In the case of `OC[C@H]1O[C@@H](n2cnc3c2N=CNC[C@H]3O)[C@H](O)[C@@H]1O` [Coformycin], the ADA inhibition (adenosine deaminase) is given as “potent inhibitors of ADA”.

In the case of `Nc1ncnc2c1ncn2[C@@H]1O[C@H](CO)C[C@H]1O` [Cordycepin, 3'-deoxyadenosine], the RNA synthesis ([6]; 200 μg/ml) is listed as “totally inhibits RNA synthesis”, the “DNA and protein synthesis” value [6] is listed as “not affected” and the “synthesis of mature rRNA, ribosomal precursor 45S RNA and tRNA” value [6] is listed as “inhibits the synthesis of mature rRNA, ribosomal precursor 45S RNA and tRNA”. The “rRNA and tRNA syntheses” value ([6]; lower concentrations) was “selectively inhibited”.

In the case of `Nc1ncnc2c1ncn2[C@@H]1CC[C@@H](O)[C@H]1O` [DHCaA, dihydroxycyclopentanyladenine], the “antiviral activity and cytotoxicity vs first generation” value (SAHH hydrolase) is listed as “retained antiviral activity and considerably lower cytotoxicity than their parent first generation inhibitors”.

In the case of `Nc1ncnc2c1ncn2[C@@H]1C=C[C@@H](O)[C@H]1O` [DHCeA, dihydroxycyclopentenyladenine], the “antiviral activity and cytotoxicity vs first generation” value (SAHH hydrolase) is given as “retained antiviral activity and considerably lower cytotoxicity than their parent first generation inhibitors”.

In the case of `CC=CC[C@H](N)C(=O)O` [L-2-amino-4-hexanoic acid], the inhibition [2] is listed as “effective inhibitors”.

In the case of `CCCC[S@@](=N)(=O)CC[C@H](N)C(=O)O` [L-buthionine-(R)-sulfoximine], the “depletion of GSH” value (GSH; kidney) is given as “modest depletion in the kidney” and the “depletion of GSH” value (GSH; liver or pancreas) is given as “did not show any significant depletion of GSH”.

For `CCCC[S@](=N)(=O)CC[C@H](N)C(=O)O` [L-buthionine-(S)-sulfoximine], the “reduction of GSH levels” value (GSH) is given as “effective in reducing GSH levels”.

For `CCCCS(=N)(=O)CC[C@H](N)C(=O)O` (stereo partly drawn) [L-buthionine-(S,R)-sulfoximine], the “reduction of GSH levels” value (GSH) is listed as “effective in reducing GSH levels”.

In the case of `CCSCC[C@H](N)C(=O)O` [L-ethionine], the inhibition [2] is given as “effective inhibitors”.

For `CC1(C)N=C(N)N=C(N)N1c1ccc(CCCCc2ccc(S(=O)(=O)F)cc2Cl)c(Cl)c1` [NSC 127755], the “s.c. toxicity (LD100)” value ([5]; s.c.) is listed as ≥ 156 mg/kg.

For `Nc1nccc2c1ncn2[C@@H]1O[C@H](CSCC[C@H](N)C(=O)O)[C@@H](O)[C@H]1O` [S-(3-deazaadenosyl)-L-homocysteine], the inhibition [7] is listed as 84%.

For `C[S+](CCCN)C[C@H]1O[C@@H](n2cnc3c(N)ncnc32)[C@H](O)[C@@H]1O` (stereo partly shown) [S-adenosyl-(5')-3-methylthio-propylamine], the inhibition (methyl transfer from SAM) is given as “effective inhibitors”.

In the case of `Nc1ncnc2c1ncn2[C@@H]1O[C@H](CS(=O)(=O)CC[C@H](N)C(=O)O)[C@@H](O)[C@H]1O` [S-adenosyl-L-homocysteine sulfone], the inhibition [7] is given as 40%.

In the case of `Nc1ncnc2c1ncn2[C@@H]1O[C@H](C[S+]([O-])CC[C@H](N)C(=O)O)[C@@H](O)[C@H]1O` (stereo partly drawn) [S-adenosyl-L-homocysteine sulfoxide], the inhibition [7] is given as 47%.

For `Nc1ncnc2c1ncn2[C@@H]1C[C@H](CSCC[C@H](N)C(=O)O)[C@@H](O)[C@H]1O` [S-aristeromycinyl-L-homocysteine], the inhibition [7] is given as 66%.

For `C[S+](CC[C@H](N)C(=O)O)C[C@H]1O[C@@H](n2cnc3c(=O)[nH]cnc32)[C@H](O)[C@@H]1O` (stereo partly drawn) [S-inosyl-L-methionine], the inhibition (methyl transfer from SAM) is listed as “effective inhibitors”.

For `Nc1ncnc2nc[nH]c12.O=P(O)(O)O` [adenine phosphate], the “inhibition of tRNA methylases” value (tRNA methylases) is listed as “gave inhibition that would be acceptable”.

In the case of `Nc1ncnc2nc[nH]c12.O=S(=O)(O)O` [adenine sulfate], the “inhibition of tRNA methylases” value (tRNA methylases) is listed as “gave inhibition that would be acceptable”.

In the case of `Nc1c2nc[nH]c2nc[n+]1[O-]` [adenine-N^1 -oxide], the “inhibition of tRNA methylases” value (tRNA methylases) is listed as “gave inhibition that would be acceptable”.

For `Nc1nccc2c1ncn2[C@@H]1CC[C@@H](O)[C@H]1O` [c^3 -DHCaA, dihydroxycyclopentanyl-3-deazaadenine], the “antiviral activity and cytotoxicity vs first generation” value (SAHH hydrolase) is listed as “retained antiviral activity and considerably lower cytotoxicity than their parent first generation inhibitors”.

In the case of `Nc1nccc2c1ncn2[C@@H]1C=C[C@@H](O)[C@H]1O` [c^3 -DHCeA, dihydroxycyclopentenyl-3-deazaadenine], the “antiviral activity and cytotoxicity vs first generation” value (SAHH hydrolase) is listed as “retained antiviral activity and considerably lower cytotoxicity than their parent first generation inhibitors”.

In the case of `Nc1nccc2c1ncn2[C@@H]1C[C@H](CO)[C@@H](O)[C@H]1O` [carbocyclic 3-deazaadenosine, carbocyclic-3-deazaadenosine], the effective inhibitory concentration (human retrovirus) is listed as ~1.4 µg/mL, the “minimum inhibitor concentration (50% reduction of cytopathogenicity)” value [1] is listed as 0.2 µg/mL and the Ki (SAH hydrolase) is listed as 0.013 µM.

In the case of `NC(C(=O)O)C1CCCC1` (stereo not shown) [cyclopentaneglycine], the SAM synthetase inhibition (SAM synthetase) is listed as “effective inhibitors”.

For `Nc1ncnc2c1ncn2C1OC(CC2CCC(N)C(=O)N2)C(O)C1O` (stereo not shown) [cyclosinefungin], the inhibition [4] is listed as 50%.

In the case of `C[Se]CC[C@H](N)C(=O)O` [selenomethionine], the IC50 (L1210 cells) is listed as 130 µM.

Reference: patent publication US5872104A, “Combinations and methods for reducing antimicrobial resistance” (Oridigm Corporation, priority 1994, dated 1999)
